From patent publication US20230149326A1, “PHARMACEUTICAL COMPOSITION FOR PREVENTING OR TREATING MUSCULAR WEAKNESS-RELATED DISEASES COMPRISING ALVERINE, 4-HYDROXY ALVERINE, DERIVATIVE THEREOF, OR PHARMACEUTICALLY ACCEPTABLE SALT THEREOF” (AVENTI INC., priority 2020, published 2023)
Counter-ions that a name gives are not always drawn.

What was measured:
sarcopenia-induced mice [1] = assay: Muscle weight measurement, sarcopenia-induced mouse; assay type: in vivo; settings: hindlimb-immobilized mice; oral 17, 50, 150 mg/kg/day
Method: In order to confirm a muscle strength enhancement effect of alverine citrate, sarcopenia-induced mice were administered with alverine citrate and tested for running ability. After the treadmill running test, muscle weight was measured. In particular, the hindlimb of 10 week-old C57BL/6 male mice was immobilized using a surgical stapler (Autosuture Royal 35W stapler). The staples were removed after 5 days and the mice were allowed to remobilize for 3 days. After that, running ability was measured. The mice were dosed orally with 200 μL of alverine citrate per mice at a dose of 17 mg/kg/day (AC-L), 50 mg/kg/day (AC-M) or 150 mg/kg/day (AC-H), and these mice were set as the experimental group. Untreated sarcopenia-induced mice were set as the control group (FIG. 8). The 10 week-old C57BL/6 male mice were purchased from Daehan BioLink. For muscle weight measurement, the GA and TA muscles in the hindlimb of the mice in each group were removed and weighed.

C2C12 cells = assay: Promotion of differentiation of myoblasts (MyHC fluorescent staining); assay type: cell-based, mouse
Method: C2C12 (American Type Culture Collection, CRL-1772™) cells are a myoblast cell line obtained from C3H mouse and is used in myoblast differentiation research. The C2C12 cells were cultured using growth media, and then cultured using differentiation media for differentiation induction. Here, DMEM supplemented with 10% fetal bovine serum was used as growth media (GM), and DMEM supplemented with 5% horse serum (HS) was used as differentiation media (DM). In order to confirm the effect of alverine citrate on promoting the differentiation of myoblasts, C2C12 cells were dispensed in the GM of Example 1.1 and cultured for 24 hours, and then the C2C12 cells were treated with DMSO, insulin, or alverine citrate, and induced for differentiation over 3 days. […] Here, the DMSO, insulin and alverine citrate used in the experiment were all purchased from Sigma-Aldrich. The group treated with insulin was used as the positive control group. In particular, C2C12 cells were dispensed in a 6-well plate treated with the GM of Example 1.1 at a concentration of 5×10^5 cells per plate and after 24 hours, were replaced with DMEM media supplemented with 5% HS and induced for differentiation. Thereafter, the cells were treated with DMSO, insulin (1.72 μM) or alverine citrate (0.01 μM, 0.1 μM, 1 μM or 10 μM). After 3 days, after removing the media, the cells were washed with phosphate buffer solution (1× PBS) and treated with paraformaldehyde (4%) and fixed at room temperature for 15 minutes. Then, after washing three times with phosphate buffer solution (1× PBS), PBS containing 0.3% triton X-100 was treated with permeabilization buffer and allowed to react at room temperature for 10 minutes. After washing three times with phosphate buffer solution (1× PBS), PBST (blocking buffer, PBS containing 0.5% Tween 20) containing 2% bovine serum albumin was administered and allowed to react for 30 minutes to suppress nonspecific binding of antibodies. After washing with phosphate buffer (1× PBS) three times, 100 μL of primary antibodies (SC-20641, Santa Cruz Biotechnology) to MYH3 diluted to 1:500 were added and allowed to react at room temperature for 1 hour. Thereafter, after washing with phosphate buffer (1× PBS) three times, 100 μL of secondary antibodies (Goat anti-Rabbit IgG-HRP) diluted to 1:5,000 were added and allowed to react at room temperature for 1 hour. After 1 hour, for nuclear staining, after washing with phosphate buffer (1× PBS) three times, the blocking buffer was treated with diluted DAPI dye and allowed to react at room temperature for 10 minutes. Thereafter, after washing with phosphate buffer (1× PBS) three times, the washed cover glass was measured for absorbance at a wavelength of 450 nm and a fluorescent image was taken using a fluorescence microscope. The anti-MyHC antibody stained area was analyzed using imageJ (Java-based image processing program). To confirm the effect of 4-hydroxy alverine on promoting myoblast differentiation, following the same method as Example 1, DMSO, insulin (1.72 μM), alverine citrate (0.01 μM, 0.1 μM, 1 μM or 10 μM), 4-hydroxy alverine (0.01 μM, 0.1 μM, 1 μM or 10 μM) were each administered, and differentiation to myotubes and changes in myotube thickness and diameter were observed.

C57BL/6 male mice = assay: Muscle weight measurement, normal mouse; assay type: in vivo
Method: In order to confirm the muscle strength enhancement effect of alverine citrate, after administering alverine citrate to a mouse, the mouse was tested for motor functions such as grip strength, running, balance coordination, and the like. After motor function tests, muscle weight was measured. In particular, each of 10 week-old C57BL/6 male mice was dosed orally with 200 μL of alverine citrate for 4 weeks, at a daily dose of 17 mg/kg/day (AC-L), 50 mg/kg/day (AC-M) or 150 mg/kg/day (AC-H). This group of mice was set as the experimental group (FIG. 3). The 10 week-old C57BL/6 male mice were purchased from Daehan BioLink. For muscle weight measurement, gastrocnemius (GA) tibialis anterior (TA) muscles in the hindlimb of the mice in each group were removed and weighed.

sarcopenia-induced mice [2] = assay: Running ability test, sarcopenia-induced mouse; assay type: in vivo; settings: hindlimb-immobilized mice; oral 17, 50, 150 mg/kg/day
Method: Running ability was measured using a treadmill designed specific for this experiment. First, aversive stimuli were provided by letting electric stimuli flow at the starting point. Before the measurement, the mice were acclimatized at 8 m/min for 10 minutes. The running time was recorded by allowing mice in each group to run in separate lanes until exhaustion. Exhaustion was defined such that when the mouse stays outside the lanes for 10 seconds or more without running, the mouse was determined to be exhausted and the time was recorded. It was not possible to repeat this experiment on the same mouse. The mouse was placed on the treadmill and the test was started at 8 rpm, and the speed was accelerated by 2 rpm every 10 minutes to a maximum speed of 20 rpm. The slope of the lane started from a zero-degree incline and then was elevated to a five-degree incline after 30 min from the start. In order to confirm a muscle strength enhancement effect of alverine citrate, sarcopenia-induced mice were administered with alverine citrate and tested for running ability. After the treadmill running test, muscle weight was measured. In particular, the hindlimb of 10 week-old C57BL/6 male mice was immobilized using a surgical stapler (Autosuture Royal 35W stapler). […] After that, running ability was measured. […] Running ability was measured by the same method as in Example 2.2.

CCN(CCCc1ccccc1)CCCc1ccccc1 [alverine citrate]
GA and TA muscle weights, dependence on dose (sarcopenia-induced mice [1]): also increased
diameter of myotubes (C2C12 cells; as the treatment concentration increases (0.01, 0.1, 1, 10 μM), 3 days): the diameter of myotubes increased
differentiation of myoblasts to myotubes (C2C12 cells; compared with DMSO alone, 3 days, insulin 1.72 μM, alverine citrate 0.01-10 μM): more differentiated to myotubes
differentiation of myoblasts to myotubes (C2C12 cells; compared with DMSO or insulin (1.72 μM), 0.01-10 μM): more differentiated to myotubes
muscle weight of GA and TA, dependence on dose (C57BL/6 male mice; as the administration dose increases (17, 50, 150 mg/kg/day)): also increased
muscle weight of GA and TA (C57BL/6 male mice; oral, 4 weeks, 17, 50 or 150 mg/kg/day, compared with normal group): increased compared to the normal group mouse
running time, dependence on dose (sarcopenia-induced mice [2]): increased proportionally with the dose concentration
